Measurements reported in PubChem BioAssay AID328 (DTP/NCI, 2004).
Several values for one entry are separate records, joined by “and”; a condition that tells them apart may be missing. Equal entries are not always repeated. Inconclusive results and toxic doses are left out.

Tested on: BDF1 mice, P388 leukemia ip, median survival T/C
Experiment: NCI In Vivo Anticancer Drug Screen. Data for tumor model P388 Leukemia (intraperitoneal) in B6D2F1 (BDF1) mice
Conditions: endpoint: median survival time, higher = longer survival
In short: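 Steps: implant the tumour, treat one group with compound and another with vehicle, record survival, then divide treated by control.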

[1] = dose: 25.0 mg/kg/injection, schedule: Q04DX003 (ip), vehicle: other
[2] = dose: 50.0 mg/kg/injection, schedule: Q04DX003 (ip), vehicle: other
[3] = dose: 100.0 mg/kg/injection, schedule: Q01DX009 (ip), vehicle: saline with Tween-80
[4] = dose: 200.0 mg/kg/injection, schedule: Q01DX009 (ip), vehicle: saline with Tween-80

## Cc1nc(N)nc(N)c1-c1ccc(Cl)c(Cl)c1
dose: 0.85 mg/kg/injection, schedule: Q01DX009 (ip), vehicle: saline with Tween-80
  T/C: 100 % of control
dose: 1.0 mg/kg/injection, schedule: Q02DX005 (ip), vehicle: Klucel (hydroxypropylcellulose) (HPC)
  T/C: 103 % of control
dose: 1.0 mg/kg/injection, schedule: Q02DX009 (ip), vehicle: Klucel (hydroxypropylcellulose) (HPC)
  T/C: 107 % of control
dose: 2.0 mg/kg/injection, schedule: Q02DX005 (ip), vehicle: Klucel (hydroxypropylcellulose) (HPC)
  T/C: 111 % of control
dose: 2.0 mg/kg/injection, schedule: Q02DX009 (ip), vehicle: Klucel (hydroxypropylcellulose) (HPC)
  T/C: 117 % of control
dose: 3.0 mg/kg/injection, schedule: Q01DX009 (ip), vehicle: saline with Tween-80
  T/C: 122 % of control
dose: 4.0 mg/kg/injection, schedule: Q02DX005 (ip), vehicle: Klucel (hydroxypropylcellulose) (HPC)
  T/C: 101 % of control
dose: 4.0 mg/kg/injection, schedule: Q02DX009 (ip), vehicle: Klucel (hydroxypropylcellulose) (HPC)
  T/C: 121 % of control
dose: 4.5 mg/kg/injection, schedule: Q01DX009 (ip), vehicle: saline with Tween-80
  T/C: 118 % of control
dose: 6.25 mg/kg/injection, schedule: Q01DX009 (ip), vehicle: saline with Tween-80
  T/C: 86 % of control
dose: 8.0 mg/kg/injection, schedule: Q02DX005 (ip), vehicle: Klucel (hydroxypropylcellulose) (HPC)
  T/C: 97 % of control
dose: 8.0 mg/kg/injection, schedule: Q02DX009 (ip), vehicle: Klucel (hydroxypropylcellulose) (HPC)
  T/C: 154 % of control
dose: 16.0 mg/kg/injection, schedule: Q02DX009 (ip), vehicle: Klucel (hydroxypropylcellulose) (HPC)
  T/C: 117 % of control
dose: 25.0 mg/kg/injection, schedule: Q04DX003 (ip), vehicle: saline with Tween-80
  T/C: 172 % of control
dose: 37.5 mg/kg/injection, schedule: Q04DX003 (ip), vehicle: saline with Tween-80
  T/C: 118 % of control

## CC(C)(C)C(O)CC(C)(O)C(C)(C)C (configuration not stated)
dose: 6.3 mg/kg/injection, schedule: Q01DX009 (ip), vehicle: Klucel (hydroxypropylcellulose) (HPC)
  T/C: 101 % of control
dose: 12.5 mg/kg/injection, schedule: Q01DX009 (ip), vehicle: Klucel (hydroxypropylcellulose) (HPC)
  T/C: 107 % of control
dose: 25.0 mg/kg/injection, schedule: Q01DX009 (ip), vehicle: Klucel (hydroxypropylcellulose) (HPC)
  T/C: 108 % of control

## CCCNC(C)(C)C(SS)c1ccc(C(F)(F)F)cc1 (configuration not stated)
dose: 12.5 mg/kg/injection, schedule: Q04DX003 (ip), vehicle: other
  T/C: 100 % of control
[1]
  T/C: 110 % of control
[2]
  T/C: 105 % of control

## ClC1=C(Cl)C2(Cl)C(Br)C(Br)C1(Cl)C2(Cl)Cl (configuration not stated)
[1]
  T/C: 118 % of control
[2]
  T/C: 109 % of control
[3]
  T/C: 90 % of control
dose: 100.0 mg/kg/injection, schedule: Q04DX003 (ip), vehicle: other
  T/C: 100 % of control and 104 % of control
[4]
  T/C: 100 % of control
dose: 200.0 mg/kg/injection, schedule: Q04DX003 (ip), vehicle: Klucel (hydroxypropylcellulose) (HPC)
  T/C: 90 % of control
dose: 400.0 mg/kg/injection, schedule: Q01DX009 (ip), vehicle: saline with Tween-80
  T/C: 110 % of control
dose: 400.0 mg/kg/injection, schedule: Q04DX003 (ip), vehicle: other
  T/C: 100 % of control

## O=C(O)C(c1ccccc1)C1CCCC1 (configuration not stated)
dose: 50.0 mg/kg/injection, schedule: Q01DX009 (ip), vehicle: saline with Tween-80
  T/C: 100 % of control
[3]
  T/C: 95 % of control
[4]
  T/C: 109 % of control
